Test results as given in patent US10919896B2, “Preparation and uses of pyrimidinone derivatives” (Cancer Research Technology Limited, priority 2016, dated 2021).

Molecular target: Cdc7/ASK (Homo sapiens, UniProt O00311)
Assay: Cdc7 Biochemical Assay Method 1: 384 well ELISA, whole protein substrate MCM2, antibody against Phospho MCM2 (S53)
Parameters: purchased
Conditions: 2 μM ATP, read-out: Biochemical Method 1 (pIC50) (converted)
Method: This protocol describes a method for assaying Cdc7/ASK for activity. The assay is a 384 well ELISA assay, utilising a whole protein substrate (MCM2) and an antibody against Phospho MCM2 (S53). This site is thought to be specific to Cdc7/ASK phosphorylation and the assay has been validated using knockout mutants. Reagents • TBS: 25 mM Tris pH 7.2, 150 mM NaCl. (Dilute 10× stock by 1:10). • Wash Buffer: TBS+0.05% Tween 20. (Add 100 mL 1 M Tris pH 7.2, 120 mL 5 M NaCl and 2 mL 100% Tween 20 per 4 L). • Kinase Reaction Buffer: 50 mM Tris-HCl pH 8.5, 10 mM MgCl2, 1 mM DTT. (Dilute 10× stock by 1:10 and add 100 μL 1M DTT per 100 mL prior to assay). • Diethanolamine Buffer: 1 M diethanolamine pH 9.8, 0.5 mM MgCl2. • Stop Solution: 1 M NaOH. • MCM2 was expressed and purified in-house and used in the assay at a final assay concentration of 436 ng/well. • Cdc7/ASK is purchased from commercial suppliers and used in the assay at a final assay concentration of 37.97 ng/well or 20.63 nM. • ATP used as a final assay concentration of 2 μM. • Primary Antibody: Rabbit anti-Phospho MCM2 (S53 Antibody (BL3353)), is purchased from commercial suppliers at 0.2 mg/mL and used at a final assay concentration by diluting 1:800 in TBS. • Secondary Antibody: Anti-Rabbit/AP Antibody is supplied is purchased from commercial suppliers at 1 mg/mL and used at a final assay concentration by diluting 1:2000 in TBS. • Development Reagent: Dissolve one 20 mg PNPP tablet (Sigma, product […], 20 mg per tablet) per 20 mL diethanolamine Buffer (or one 5 mg PNPP tablet per 5 mL diethanolamine buffer). Cover in foil and leave shaking on a roller shaker at room temperature for up to an hour to dissolve. Methods • 1. Add 20 μL 1× working stock of Substrate (MCM2) in TBS to all wells of a clear, 384 well, Nickel-chelate microplate to give a final concentration of […]. Incubate at room temperature for at least 1 hour. Plates can be pre-coated for 1 hour and stored at 4° C. for up to 8 days. • 2. Wash with TBS+0.05% Tween 20 (80 μL×3). • 3. Add 2 μL 10× test compounds, including the positive control, in 40% DMSO/water to 'test' wells. Add 2 μL 40% DMSO/water to 'control' and 'blank' wells. The final DMSO concentration will be 4%. • 4. Add 13 μL CDC7/ASK Kinase (1.5× stock) in Kinase Reaction Buffer to 'test' and 'control' wells to give a final concentration of […]. Add 13 μL Kinase Reaction Buffer to 'blank' wells. • 5. Add 5 μL ATP (4× stock) in Kinase Reaction Buffer to all wells to give a final concentration of 2 μM. • 6. Incubate at room temperature for 90 minutes. • 7. Wash with TBS+0.05% Tween 20 (80 μL×3). • 8. Add 20 μL 1× working solution of Primary Antibody in TBS to all wells. Incubate at room temperature for 30 minutes. • 9. Wash with TBS+0.05% Tween 20 (80 μL×3). • 10. Add 20 μL 1× working solution of Secondary Antibody in TBS to all wells. Incubate at room temperature for 30 minutes. • 11. Wash with TBS+0.05% Tween 20 (80 μL×3). • 12. Add 20 μL 1× Development Reagent to all wells. • 13. Incubate at room temperature for 2 hours. Stop the reaction by adding 20 μL Stop Solution to all wells and record Absorbance on a Pherastar plate reader. Percentage inhibition values were calculated from absorbance values, using the no compound (DMSO) and no enzyme control values as 0% and 100% inhibition, respectively. IC50 determination was performed with ExcelFit software (IDBS) using curve fit 205. Z' factors were determined for each plate tested and were all above 0.5. Method 2

Sequence of Cdc7/ASK (O00311 whole entry): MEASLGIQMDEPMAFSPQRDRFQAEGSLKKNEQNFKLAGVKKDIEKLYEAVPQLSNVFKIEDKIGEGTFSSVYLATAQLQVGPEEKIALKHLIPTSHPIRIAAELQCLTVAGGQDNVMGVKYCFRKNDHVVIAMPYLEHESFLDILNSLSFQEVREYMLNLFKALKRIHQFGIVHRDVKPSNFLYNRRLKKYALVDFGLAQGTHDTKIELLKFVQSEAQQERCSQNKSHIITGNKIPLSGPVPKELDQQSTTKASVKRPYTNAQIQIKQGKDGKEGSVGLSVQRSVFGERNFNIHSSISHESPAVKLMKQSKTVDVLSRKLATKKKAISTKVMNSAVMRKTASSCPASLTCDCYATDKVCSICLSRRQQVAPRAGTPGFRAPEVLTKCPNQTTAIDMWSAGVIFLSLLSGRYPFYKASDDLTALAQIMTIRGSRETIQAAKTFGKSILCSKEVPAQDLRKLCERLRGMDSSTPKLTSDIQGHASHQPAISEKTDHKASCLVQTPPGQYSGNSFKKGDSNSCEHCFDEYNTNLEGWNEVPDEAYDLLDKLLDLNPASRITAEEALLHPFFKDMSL
Sequence of Cdc7/ASK (Q9UBU7 whole entry partner): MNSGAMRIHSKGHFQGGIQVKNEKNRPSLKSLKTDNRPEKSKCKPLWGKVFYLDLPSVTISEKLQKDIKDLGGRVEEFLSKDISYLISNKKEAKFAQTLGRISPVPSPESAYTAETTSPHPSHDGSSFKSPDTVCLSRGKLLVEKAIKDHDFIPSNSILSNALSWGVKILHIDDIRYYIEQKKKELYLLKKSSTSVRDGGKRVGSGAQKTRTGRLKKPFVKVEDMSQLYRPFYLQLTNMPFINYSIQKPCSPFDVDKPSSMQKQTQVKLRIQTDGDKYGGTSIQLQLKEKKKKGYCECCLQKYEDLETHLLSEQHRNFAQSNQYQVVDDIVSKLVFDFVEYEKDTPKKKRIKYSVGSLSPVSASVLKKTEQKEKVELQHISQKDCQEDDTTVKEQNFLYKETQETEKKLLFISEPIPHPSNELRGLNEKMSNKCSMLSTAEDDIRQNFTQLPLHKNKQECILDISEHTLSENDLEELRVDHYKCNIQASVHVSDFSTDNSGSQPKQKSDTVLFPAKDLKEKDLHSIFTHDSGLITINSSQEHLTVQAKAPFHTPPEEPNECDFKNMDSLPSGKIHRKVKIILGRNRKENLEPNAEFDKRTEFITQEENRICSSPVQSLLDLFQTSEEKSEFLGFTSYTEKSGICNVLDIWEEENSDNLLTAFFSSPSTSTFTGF

| SMILES | IC50 |
| --- | --- |
| CC(C)(C)OC(=O)N1CCC(c2nc(-c3ccncc3)[nH]c(=O)c2Cl)CC1 [Compound 1, tert-Butyl 4-[5-chloro-6-oxo-2-(4-pyridyl)-1H-pyrimidin-4-yl]piperidine-1-carboxylate] | 70.8 nM |
| O=c1[nH]c(-c2ccncc2)nc(C2CCCN2)c1Cl (stereo not drawn) [Compound 7] | 2450 nM |
| O=c1[nH]c(-c2ccncc2)nc(C2(F)CCCNC2)c1Cl (stereo not drawn) [Compound 19] | 3.39 nM |
| O=c1[nH]c(-c2ccncc2)nc(C2(F)CCNCC2)c1Cl [Compound 21] | 1.51 nM |
| CC(C)(C)OC(=O)N1CCC(F)(c2nc(-c3ccncc3)[nH]c(=O)c2Cl)CC1 [Compound 22] | 74.1 nM |
| O=c1[nH]c(-c2ccncc2)nc(N2CCCCC2)c1Cl [Compound 26, 5-chloro-4-(1-piperidyl)-2-(4-pyridyl)-1H-pyrimidin-6-one] | 6.76 nM |
| CCOC1CCN(c2nc(-c3ccncc3)[nH]c(=O)c2Cl)CC1 [Compound 27] | 21.4 nM |
| CN(C)C1CCN(c2nc(-c3ccncc3)[nH]c(=O)c2Cl)C1 (stereo not drawn) [Compound 29] | 1260 nM |
| O=c1[nH]c(-c2ccncc2)nc(N2CCCC2)c1Cl [Compound 30] | 132 nM |
| CC(C)(C)OC(=O)N1CCN(c2nc(-c3ccncc3)[nH]c(=O)c2Cl)CC1 [Compound 32] | 100 nM |
| O=C1CN(c2nc(-c3ccncc3)[nH]c(=O)c2Cl)CCN1 [Compound 33] | 12.9 nM |
| CC(C)C(=O)N1CCC(c2nc(-c3ccncc3)[nH]c(=O)c2Cl)CC1 [Compound 34, 5-chloro-4-[1-(2-methylpropanoyl)-4-piperidyl]-2-(4-pyridyl)-1H-pyrimidin-6-one] | 13.2 nM |
| CC(C)(C)OC(=O)NCC(=O)N1CCC(c2nc(-c3ccncc3)[nH]c(=O)c2Cl)CC1 [Compound 35, tert-butyl-N-[2-[4-[5-chloro-6-oxo-2-(4-pyridyl)-1H-pyrimidin-4-yl]-1-piperidyl]-2-oxo-ethyl]carbamate] | 22.9 nM |
| CC(C)NC(=O)N1CCC(c2nc(-c3ccncc3)[nH]c(=O)c2Cl)CC1 [Compound 36, 4-[5-chloro-6-oxo-2-(4-pyridyl)-1-H-pyrimidin-4-yl]-N-isopropyl-piperidine-1-carboxamide] | 25.7 nM |
| O=c1[nH]c(-c2ccncc2)nc(C2CCN(S(=O)(=O)c3ccccc3)CC2)c1Cl [Compound 37, 4-[1-(benzenesulfonyl)-4-piperidyl]-5-chloro-2-(4-pyridyl)-1H-pyrimidin-6-one] | 30.2 nM |
| O=C(c1ccccc1)N1CCC(c2nc(-c3ccncc3)[nH]c(=O)c2Cl)CC1 [Compound 41] | 6.92 nM |

| SMILES | IC50 |
| --- | --- |
| CC(=O)N1CCN(c2nc(-c3ccncc3)[nH]c(=O)c2Cl)CC1 [Compound 42] | 5.13 nM |
| CS(=O)(=O)N1CCN(c2nc(-c3ccncc3)[nH]c(=O)c2Cl)CC1 [Compound 43] | 3.16 nM |
| CC(C)(C)C(=O)N1CCC(c2nc(-c3ccncc3)[nH]c(=O)c2Cl)CC1 [Compound 44] | 63.1 nM |
| O=C(c1ccccn1)N1CCC(c2nc(-c3ccncc3)[nH]c(=O)c2Cl)CC1 [Compound 45] | 8.71 nM |
| N#Cc1ccc(C(=O)N2CCC(c3nc(-c4ccncc4)[nH]c(=O)c3Cl)CC2)cc1 [Compound 46] | 1.41 nM |
| O=C(c1ccnnc1)N1CCC(c2nc(-c3ccncc3)[nH]c(=O)c2Cl)CC1 [Compound 47] | 1.12 nM |
| N#Cc1cccc(C(=O)N2CCC(c3nc(-c4ccncc4)[nH]c(=O)c3Cl)CC2)c1 [Compound 48] | 2.57 nM |
| O=C(c1ccccc1I)N1CCC(c2nc(-c3ccncc3)[nH]c(=O)c2Cl)CC1 [Compound 49] | 15.8 nM |
| O=C(c1cccc(O)c1)N1CCC(c2nc(-c3ccncc3)[nH]c(=O)c2Cl)CC1 [Compound 50] | 3.09 nM |
| Cc1cc(C(=O)N2CCC(c3nc(-c4ccncc4)[nH]c(=O)c3Cl)CC2)[nH]n1 [Compound 52] | 2.63 nM |
| O=C(Cc1c[nH]cn1)N1CCC(c2nc(-c3ccncc3)[nH]c(=O)c2Cl)CC1 [Compound 53] | 5.75 nM |
| Cc1nc(C)c(C(=O)N2CCC(c3nc(-c4ccncc4)[nH]c(=O)c3Cl)CC2)s1 [Compound 54] | 0.871 nM |
| Cc1cc(C(=O)N2CCC(c3nc(-c4ccncc4)[nH]c(=O)c3Cl)CC2)n(C)n1 [Compound 56] | 1.62 nM |
| O=C(c1cscn1)N1CCC(c2nc(-c3ccncc3)[nH]c(=O)c2Cl)CC1 [Compound 57] | 3.47 nM |
| Cc1cc(C(=O)N2CCC(c3nc(-c4ccncc4)[nH]c(=O)c3Cl)CC2)nn1C [Compound 58] | 0.912 nM |

Second part, the compound after the results:

| IC50 | SMILES |
| --- | --- |
| 1.74 nM | O=c1[nH]c(-c2ccncc2)nc(C2CCNCC2)c1Cl [Compound 2, 5-Chloro-6-piperidin-4-yl-2-pyridin-4-yl-3H-pyrimidin-4-one] |
| 6.76 nM | O=c1[nH]c(-c2ccncc2)nc(C2CCOCC2)c1Br [Compound 3, 5-bromo-2-(4-pyridyl)-4-tetrahydropyran-4-yl-1H-pyrimidin-6-one] |
| 331 nM | O=c1[nH]c(-c2ccncc2)nc(C2CCOCC2)c1I [Compound 4, 5-Iodo-2-(4-pyridyl)-4-tetrahydropyran-4-yl-1H-pyrimidin-6-one] |
| 6.31 nM | O=c1[nH]c(-c2ccncc2)nc(C2CCOCC2)c1F [Compound 5, 5-fluoro-2-(4-pyridyl)-4-tetrahydropyran-4-yl-1H-pyrimidin-6-one] |
| 1.45 nM | O=c1[nH]c(-c2ccncc2)nc(C2CCOCC2)c1Cl [Compound 6] |
| 3.63 nM | O=c1[nH]c(-c2ccncc2)nc(C2CCCNC2)c1Cl (stereo not drawn) [Compound 8] |
| 3.39 nM | CC1(c2nc(-c3ccncc3)[nH]c(=O)c2Cl)CCOCC1 [Compound 9] |
| 3.02 nM | CC1(c2nc(-c3ccnc(F)c3)[nH]c(=O)c2Cl)CCOCC1 [Compound 10] |
| 5.25 nM | O=c1[nH]c(-c2ccncc2)nc(C2CCNC2)c1Cl (stereo not drawn) [Compound 11] |
| 20 nM | O=c1[nH]c(-c2ccncc2)nc(C2CCOC2)c1Cl (stereo not drawn) [Compound 12] |
| 123 nM | CC(C)C1CC(c2nc(-c3ccncc3)[nH]c(=O)c2Cl)CCO1 (stereo not drawn) [Compound 14] |
| 832 nM | O=c1[nH]c(-c2ccncc2)nc(C2CCCCO2)c1Cl (stereo not drawn) [Compound 15] |
| 12.9 nM | O=c1[nH]c(-c2ccncc2)nc(C2CCCOC2)c1Cl (stereo not drawn) [Compound 16] |
| 2.34 nM | O=c1[nH]c(-c2ccnc(F)c2)nc(C2CCOCC2)c1F [Compound 17] |
| 0.794 nM | O=c1[nH]c(-c2ccnc(F)c2)nc(C2(F)CCOCC2)c1Cl [Compound 18] |
| 347 nM | O=c1[nH]c(-c2ccncc2)nc(C2CNCCO2)c1Cl (stereo not drawn) [Compound 20] |
| 19.1 nM | O=c1[nH]c(-c2ccnc(Cl)c2)nc(C2CCOCC2)c1Cl [Compound 23] |
| 1020 nM | O=c1[nH]c(-c2ccnc(C(F)(F)F)c2)nc(C2CCOCC2)c1Cl [Compound 24] |
| 23.4 nM | CC(C)(C)OC(=O)N1CCC(c2nc(-c3ccnc(F)c3)[nH]c(=O)c2Cl)CC1 [Compound 25] |
| 5.62 nM | O=C(N1CCC(c2nc(-c3ccncc3)[nH]c(=O)c2Cl)CC1)C(F)(F)F [Compound 38, 5-chloro-2-(4-pyridyl)-4-[1-(2,2,2-trifluoroacetyl)-4-piperidyl]-1H-pyrimidin-6-one] |
| 8.13 nM | CC(=O)N1CCC(c2nc(-c3ccncc3)[nH]c(=O)c2Cl)CC1 [Compound 40] |
| 5.13 nM | O=C(c1ccco1)N1CCC(c2nc(-c3ccncc3)[nH]c(=O)c2Cl)CC1 [Compound 51] |
| 2.09 nM | Cn1cnc(C(=O)N2CCC(c3nc(-c4ccncc4)[nH]c(=O)c3Cl)CC2)c1 [Compound 55] |
